# Entries after “also recorded” stand apart in the source; their conditions may differ. Like-named read-outs stand apart in the source and are kept apart here.
# How the values were obtained:
# DNA [1] = assay: Dark complex formation (intercalation) with DNA in the ground state, binding parameters; design: K (association constants) of the complexes with DNA: unit not given here
# Source text: Dark complex formation: It is known from F. Dall'Acqua, et al. Chem.-Biol. Interactions 21,103 (1978) that the intercalated complex formed by furocoumarins with DNA strongly affects the successive photoaddition increasing the rate of photobinding. […] These parameters have been determined according to the method of McChee and Von Hippel, J.Mol.Biol, 86, 469 (1974).
# (a) Determined according to Mc Ghee and Von Hippel, J. Mol. Biol.,
# DNA [2] = assay: Photobinding to DNA, rate constants of the photoreactions; format: biochemical
# Source text: (b) Determined according to F. Dall'Acqua, S. Marciani, F. Zambon and G.
# Rodighiero, Photochem. Photobiol., 29,489(1979).
# Photobinding capacity to DNA: The introduction of one or two methyl groups in the molecule of angelicin leads to a strong increase of the photobinding to DNA; see Table II. […] Photobiol., 29, 489 (1979).
# DNA [3] = assay: Capacity to form inter-strand cross-linkages in DNA; format: biochemical; settings: (psr = 100)
# Experimental: All these compounds were not suitable to photoinduce in DNA inter-strand cross-linkages. […] These tests were carried out according to the method of F. Bordin et al., Photochem. Photobiol., 29,1063 (1979).
# epidermal DNA synthesis [4] = assay: Inhibition of epidermal DNA synthesis in the mouse in vivo after topical application and UV-A irradiation; settings: light or radiation study, 0.01% methanol solutions, UV-A 9 J/cm^2, read-out: Percent inhibition ± standard error of epidermal DNA synthesis
# Experimental: DNA samples were dissolved in water and their specific radioactivity determined.
# Each drug substance was studied using at least six mice.
# epidermal DNA synthesis [5] = assay: Inhibition of the synthesis of epidermal DNA of the mouse in vivo after oral administration and UV-A irradiation; settings: oral 0.25 g/Kg, UV-A 9 J/cm^2 after two hours
# Source text: Considering that the topical skin tests carried out on mice to evaluate the effectiveness of these substances has yielded data which correlate well with the clinical data, such a test conveniently modified has been adopted to evaluate the effectiveness of the alkylangelicins after oral administration followed by UV-A irradiation.
# In this connection experiments have been conducted using mice 20±2 g in weight, that were starved for three hours before oral administration of the alkylangelicins. Groups of 5 mice were fed a suspension of 0.5% methylcellulose in water containing the alkylangelicins of the invention at a dosage of 0.25 g/Kg. The animals were kept in the dark for two hours, that is for the time necessary for absorption, systemic distribution and localization of the drug at the level of the skin. The animals were then irradiated with UV-A light, 9 J/cm^2. Later the animals were sacrificed and the inhibition of the epidermal DNA synthesis was tested; the results obtained are reported in Table VI. The skin on the back, protected from light by a dark paper, was assumed as a control. As a reference 8-MOP, used under the same experimental conditions, was also tested. The significant activity of the alkylangelicins according to the present invention, higher than that of 8-MOP, in inhibiting the epidermal DNA synthesis in mice upon oral administration allows one to consider these compounds as also being effective for oral administration to humans for photochemotherapy of psoriasis and of other skin diseases that are characterized by cellular hyperproliferation.
# psoriasis = assay: Topical photochemotherapy of psoriasis in patients; format: in vivo, human; settings: topical 0.1% w/v + UV-A
# Source text: Clinical data: The effectiveness of certain representative alkylangelicins according to the present invention, specifically 5-methylangelicin, 4,5'-dimethylangelicin, 4'-hydroxymethyl-4,5'-dimethylangelicin, 4'-hydroxymethyl-4,5'-dimethylangelicin and 4,5-dimethylangelicin, has been tested by measuring their capacity to resolve psoriasis in various patients. For a direct comparison the efficacy of the parent unsubstituted angelicin and that of three very effective linear furocoumarins, that is 8-methoxypsoralen (8-MOP), 5-methoxypsoralen (5-MOP), and 4,5',8-trimethylpsoralen (TMP) were also tested.
# In each treatment four areas of the affected skin were used;
# (a) In the first area an alcohol lotion, containing 10% glycerine, of the tested compound (0.1% w/v) was applied until a concentration of […] was reached then left to evaporate by the heat of the body. After half an hour the area was irradiated with high intensity UV-A emitting low pressure mercury fluorescent lamps with a wavelength of 320-400 nm. The irradiation doses were selected in the range of 4.5-13 J/cm^2 for each application as a function of the sensitivity of the skin of the patients; when the skin sensitivity was higher, the light doses were lower and vice versa.
# (b) A second area was treated with an alcohol solution of the drug as in (a) but it was covered and maintained in the dark.
# (c) A third area, where the drug was not applied, was irradiated as in (a) but in general with higher UV-A doses.
# (d) A fourth area was not treated at all, neither with the drug, not with UV-A.
# The treatment with the alkylangenlicins referred to above was repeated 5 time a week for two or more weeks; the total number of treatments was between 8 and 20 per subject. In some cases, as for instance with 5-methylangelicin, a good clearing of psoriasis was observed after 8 treatments.
# In order to avoid induction of photosensitization processes such as redness and erythema in the reference tests made with the linear furocoumarins 8-MOP, 5-MOP, TMP, lower light doses were used than in the case of alkylangelicins, the treatments were repeated at a frequency of no more than three times a week.
# melamin pigmentation = settings: Table I; cited from earlier work
# DNA [6] = settings: cited from earlier work; for Photobinding capacity to DNA: known furocoumarins
# DNA synthesis = settings: Table I; cited from earlier work
# E. coli wild type strain = settings: E. coli wild type strains; cited from earlier work
# E. coli WP2 trp^- uvrA^- = settings: cited from earlier work
# [7] = known furocoumarins, Table I; cited from earlier work
# [8] = Table I; cited from earlier work
# [9] = test system: normal human and guinea pig skin; settings: in vivo; cited from earlier work
# skin = assay: Relative skin phototoxicity; settings: (psr = 100)
structure (smiles),measurement,setting,value
"O=c1ccc2ccc3occc3c2o1 [angelicin, reference compound]",K (association constants) of the complexes with DNA,"DNA [1]; in vitro, ground state, McGhee and Von Hippel method",560
same,1/n (frequency of binding sites),"DNA [1]; in vitro, ground state, molecules bound per nucleotide",0.063
same,"1/n (frequency of binding sites), relative",DNA [1]; relative (ang = 100),100
same,"K (association constants), relative",DNA [1]; relative (ang = 100),100
same,Rate constants of the photoreactions with DNA,"DNA [2]; in vitro, UV-A irradiated",1.1 K × 10^-2 × min^-1
same,"Rate constants of the photoreactions with DNA, relative",DNA [2]; relative (ang = 100),100
same,capacity to form interstrand cross-linkages,DNA [3],0
same,inhibition in vivo at 0.01 %,epidermal DNA synthesis [4],17.5 ± 2.5%
same,Percent inhibition ± standard error of epidermal DNA synthesis,epidermal DNA synthesis [5],28 ± 2%
same,No. of patients with Excellent result,psoriasis; Excellent = 90% clearance,0 patients
same,No. of patients with Fair result,psoriasis; Fair = 50-70%,0 patients
same,No. of patients with Good result,psoriasis; Good = 70-90%,0 patients
same,No. of patients with Poor result,psoriasis; Poor 40%,8 patients
same,Stimulation of melamin pigmentation,melamin pigmentation,absent
same,DNA intercalation property,DNA [6]; Table I,evident
same,Interstrand cross-linking induction in DNA,DNA [6]; Table I,absent
same,Monoadduct forming property,DNA [6]; Table I,weak
same,Photobinding capacity to DNA,DNA [6],low capacity of photobinding to DNA; also recorded: low photobinding capacity towards DNA
same,Photobinding capacity to DNA,DNA [6]; listed as Angelicin,weak
same,DNA synthesis inhibiting property,DNA synthesis,weak
same,"mutagenic activity / mutation frequency, wild type",E. coli wild type strain,not detectable
same,"mutagenic activity, strains deficient in known repair functions",E. coli WP2 trp^- uvrA^-,Only very low mutagenic activity
same,Photosensitizing activity,[7],absent
same,Mutagenicity,[8],weak
same,erythema or hyperpigmentation on the skin,[9],does not provoke either erythema or hyperpigmentation on the skin
same,Relative skin phototoxicity,skin,0
